In patent publication US8450317B2, “CXCR3 receptor antagonists” (Boehringer Ingelheim International GmbH, priority 2009, dated 2013):
pIC50: −log10 of the molar value.

These compounds were tested against CXCR3 (Macaca fascicularis, UniProt A0A2K5UV19) (assay: functional cellular assay measuring calcium flux in CXCR3 transfected cells (block of CXCR3/IP-10 interaction)). Settings: IP-10 induced intracellular calcium flux; Cyno-CHO cells stably expressing recombinant CXCR3 and G-alpha-16; IP-10 at EC80; read-out: IC50.
Chain of CXCR3 (A0A2K5UV19 entry or part of it): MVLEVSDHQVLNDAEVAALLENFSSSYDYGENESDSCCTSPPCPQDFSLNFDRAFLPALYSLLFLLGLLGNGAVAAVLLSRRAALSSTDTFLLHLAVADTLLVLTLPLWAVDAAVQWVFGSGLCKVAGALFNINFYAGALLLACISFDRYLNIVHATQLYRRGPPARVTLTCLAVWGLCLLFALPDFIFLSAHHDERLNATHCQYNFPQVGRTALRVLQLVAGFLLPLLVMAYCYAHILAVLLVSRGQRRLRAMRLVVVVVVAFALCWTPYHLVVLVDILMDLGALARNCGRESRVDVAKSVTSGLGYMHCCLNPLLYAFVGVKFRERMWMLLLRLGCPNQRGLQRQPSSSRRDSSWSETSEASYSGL
Assay type: cell-based, Cyno
Method in brief: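 Inhibition of IP-10-induced calcium flux at 10 microM final compound, 15 min room-temperature preincubation, with IP-10 at EC80. Cells: CHO stably transfected with cynomolgus CXCR3 plus G-alpha-16, dye-loaded (Ca-4, 2 mM probenecid, HBSS/HEPES pH 7.4) 1 h at 37° C.; fluorescence ex 480/em 540 nm.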
With O=C(Cn1ccc2ccncc21)N1CCN(c2ccc(F)cc2-c2cnc(N3CCC(O)CC3)nc2)CC1 [1-(4-{4-fluoro-2-[2-(4-hydroxypiperidin-1-yl)pyrimidin-5-yl]phenyl}piperazin-1-yl)-2-(1H-pyrrolo[2,3-c]pyridin-1-yl)ethanone] the pIC50 was 8.00. C[C@H]1CN(c2ccc(F)cc2C(=O)Nc2nc3c(s2)CN(C)CC3)CCN1C(=O)Cn1ccc2cccnc21 [5-fluoro-2-[(3S)-3-methyl-4-(1H-pyrrolo[2,3-b]pyridin-1-ylacetyl)piperazin-1-yl]-N-(5-methyl-4,5,6,7-tetrahydro[1,3]thiazolo[5,4-c]pyridin-2-yl)benzamide] was tested, and the pIC50 was 7.77. Cc1cc(C)n(CC(=O)N2CCN(c3ccccc3-c3cnc(C)nc3)CC2)n1 [2-(3,5-Dimethyl-pyrazol-1-yl)-1-{4-[2-(2-methyl-pyrimidin-5-yl)-phenyl]-piperazin-1-yl}-ethanone] was tested, and the pIC50 was 7.17. CN1CCN(c2ncc(-c3cc(F)ccc3N3CCN(C(=O)Cn4cnc5cccnc54)CC3)cn2)CC1 [1-(4-{4-fluoro-2-[2-(4-methylpiperazin-1-yl)pyrimidin-5-yl]phenyl}piperazin-1-yl)-2-(3H-imidazo[4,5-b]pyridin-3-yl)ethanone] showed a pIC50 of 7.37. Work on COc1cc(NC(=O)c2cc(F)ccc2N2CCN(C(=O)CN(C)C(=O)C(C)C)[C@@H](C)C2)ccn1 [5-fluoro-N-(2-methoxypyridin-4-yl)-2-{(3S)-3-methyl-4-[N-methyl-N-(2-methylpropanoyl)glycyl]piperazin-1-yl}benzamide] yielded a pIC50 of 7.96. Work on CC1CN(c2ccc(C(F)(F)F)cc2-c2cnc(N3CCC(S(C)(=O)=O)CC3)nc2)CCN1C(=O)Cn1c(=O)[nH]c2ccccc21 (centres unmarked) [1-(2-{2-methyl-4-[2-{2-[4-(methylsulfonyl)piperidin-1-yl]pyrimidin-5-yl}-4-(trifluoromethyl)phenyl]piperazin-1-yl}-2-oxoethyl)-1,3-dihydro-2H-benzimidazol-2-one] yielded a pIC50 of 8.10. COc1ccc(N2CCN(C(=O)Cn3ccc4cccnc43)CC2)c(-c2cnc(N3CCOCC3)nc2)c1 [1-{4-[4-Methoxy-2-(2-morpholin-4-yl-pyrimidin-5-yl)-phenyl]-piperazin-1-yl}-2-pyrrolo[2,3-b]pyridin-1-yl-ethanone] showed a pIC50 of 8.05. CC1CN(c2ccccc2-c2cnc(N3CCC(S(C)(=O)=O)CC3)nc2)CCN1C(=O)Cn1c(=O)[nH]c2ccccc21 (centres unmarked) [1-{2-[2-methyl-4-(2-{2-[4-(methylsulfonyl)piperidin-1-yl]pyrimidin-5-yl}phenyl)piperazin-1-yl]-2-oxoethyl}-1,3-dihydro-2H-benzimidazol-2-one] showed a pIC50 of 7.96. COc1cc(NC(=O)c2cc(F)ccc2N2CCN(C(=O)Cn3c(=O)[nH]c4ccccc43)[C@H](C)C2)ccn1 [5-fluoro-N-(2-methoxypyridin-4-yl)-2-{(3R)-3-methyl-4-[(2-oxo-2,3-dihydro-1H-benzimidazol-1-yl)acetyl]piperazin-1-yl}benzamide] showed a pIC50 of 8.10. For Cc1cc(C)n(CC(=O)N2CCN(c3ccc(F)cc3-c3cnc(S(C)(=O)=O)nc3)CC2)n1 [2-(3,5-dimethyl-1H-pyrazol-1-yl)-1-(4-{4-fluoro-2-[2-(methylsulfonyl)pyrimidin-5-yl]phenyl}piperazin-1-yl)ethanone], the pIC50 was 6.56. In the case of CCOc1ncc(-c2ccccc2N2CCN(C(=O)Cn3nc(C)cc3C)CC2)cn1 [2-(3,5-Dimethyl-pyrazol-1-yl)-1-{4-[2-(2-ethoxy-pyrimidin-5-yl)-phenyl]-piperazin-1-yl}-ethanone], the pIC50 was 7.74. CC1CN(c2ccccc2-c2cnc(N3CCOCC3)nc2)CCN1C(=O)Cn1ccc2cccnc21 (centres unmarked) [1-{2-Methyl-4-[2-(2-morpholin-4-yl-pyrimidin-5-yl)-phenyl]-piperazin-1-yl}-2-pyrrolo[2,3-b]pyridin-1-yl-ethanone] showed a pIC50 of 7.89. CC1CN(c2ccccc2-c2cnc(N3CCC(S(C)(=O)=O)CC3)nc2)CCN1C(=O)Cn1cnc2cccnc21 (centres unmarked) [2-(3H-imidazo[4,5-b]pyridin-3-yl)-1-[2-methyl-4-(2-{2-[4-(methylsulfonyl)piperidin-1-yl]pyrimidin-5-yl}phenyl)piperazin-1-yl]ethanone] showed a pIC50 of 7.85. Work on Cc1cc(C)n(CC(=O)N2CCN(c3ccccc3-c3cnc(N4CCCC(F)(F)C4)nc3)CC2)n1 [1-(4-{2-[2-(3,3-Difluoro-piperidin-1-yl)-pyrimidin-5-yl]-phenyl}-piperazin-1-yl)-2-(3,5-dimethyl-pyrazol-1-yl)-ethanone] yielded a pIC50 of 8.05. Work on O=C(Cn1ccc2cccnc21)N1CCN(c2ccc(F)cc2-c2cnc(N3CCCC3)nc2)CC1 [1-(4-{4-fluoro-2-[2-(pyrrolidin-1-yl)pyrimidin-5-yl]phenyl}piperazin-1-yl)-2-(1H-pyrrolo[2,3-b]pyridin-1-yl)ethanone] yielded a pIC50 of 7.82. CC1CN(c2ccc(F)cc2-c2cnc(N3CCC(S(C)(=O)=O)CC3)nc2)CCN1C(=O)Cn1ccc2ccncc21 (centres unmarked) [1-[4-(4-fluoro-2-{2-[4-(methylsulfonyl)piperidin-1-yl]pyrimidin-5-yl}phenyl)-2-methylpiperazin-1-yl]-2-(1H-pyrrolo[2,3-c]pyridin-1-yl)ethanone] was tested, and the pIC50 was 8.10. Work on COc1ncc(-c2ccccc2N2CCN(C(=O)Cn3cc4ccccc4n3)CC2)cn1 [2-Indazol-2-yl-1-{4-[2-(2-methoxy-pyrimidin-5-yl)-phenyl]-piperazin-1-yl}-ethanone] yielded a pIC50 of 7.55. For CNc1ncc(-c2ccccc2N2CCN(C(=O)Cn3ccc4cccnc43)CC2)cn1 [1-{4-[2-(2-Methylamino-pyrimidin-5-yl)-phenyl]-piperazin-1-yl}-2-pyrrolo[2,3-b]pyridin-1-yl-ethanone], the pIC50 was 8.15. With CC1CN(c2ccc(C(F)(F)F)cc2-c2cnc(N3CCC(O)CC3)nc2)CCN1C(=O)CN1Cc2ccccc2C1=O (centres unmarked) [2-[2-(4-{2-[2-(4-hydroxypiperidin-1-yl)pyrimidin-5-yl]-4-(trifluoromethyl)phenyl}-2-methylpiperazin-1-yl)-2-oxoethyl]-2,3-dihydro-1H-isoindol-1-one] the pIC50 was 8.05. CS(=O)(=O)C1CCN(c2ncc(-c3cc(F)ccc3N3CCN(C(=O)Cn4ccc5cccnc54)CC3)cn2)CC1 [1-[4-(4-fluoro-2-{2-[4-(methylsulfonyl)piperidin-1-yl]pyrimidin-5-yl}phenyl)piperazin-1-yl]-2-(1H-pyrrolo[2,3-b]pyridin-1-yl)ethanone] gave a pIC50 of 8.05. In the case of COc1ncc(-c2ccccc2N2CCN(C(=O)Cn3ccc4ccccc43)CC2)cn1 [2-Indol-1-yl-1-{4-[2-(2-methoxy-pyrimidin-5-yl)-phenyl]-piperazin-1-yl}-ethanone], the pIC50 was 7.36. For CN1CCN(c2ncc(-c3ccccc3N3CCN(C(=O)Cn4ccc5cccnc54)CC3)cn2)CC1 [1-(4-{2-[2-(4-Methyl-piperazin-1-yl)-pyrimidin-5-yl]-phenyl}-piperazin-1-yl)-2-pyrrolo[2,3-b]pyridin-1-yl-ethanone], the pIC50 was 7.96. Cc1cc(C)n(CC(=O)N2CCN(c3ccc(Cl)cc3-c3cnc(N4CCOCC4)nc3)CC2)n1 [1-{4-[4-Chloro-2-(2-morpholin-4-yl-pyrimidin-5-yl)-phenyl]-piperazin-1-yl}-2-(3,5-dimethyl-pyrazol-1-yl)-ethanone] gave a pIC50 of 7.96. Work on CN1CCN(c2ncc(-c3cc(F)ccc3N3CCN(C(=O)CN4Cc5ccccc5C4=O)CC3)cn2)CC1 [2-[2-(4-{4-fluoro-2-[2-(4-methylpiperazin-1-yl)pyrimidin-5-yl]phenyl}piperazin-1-yl)-2-oxoethyl]-2,3-dihydro-1H-isoindol-1-one] yielded a pIC50 of 7.59. Cc1cc(C)n(CC(=O)N2CCN(c3ccccc3-c3cnc(N4CCC(O)C4)nc3)CC2)n1 (centres unmarked) [2-(3,5-Dimethyl-pyrazol-1-yl)-1-(4-{2-[2-(3-hydroxy-pyrrolidin-1-yl)-pyrimidin-5-yl]-phenyl}-piperazin-1-yl)-ethanone] gave a pIC50 of 8.05. With CC1CN(c2ccc(F)cc2-c2cnc(S(C)(=O)=O)nc2)CCN1C(=O)CN1Cc2ccccc2C1=O (centres unmarked) [2-[2-(4-{4-fluoro-2-[2-(methylsulfonyl)pyrimidin-5-yl]phenyl}-2-methylpiperazin-1-yl)-2-oxoethyl]-2,3-dihydro-1H-isoindol-1-one] the pIC50 was 6.61. With COc1ncc(-c2cc(C#N)ccc2N2CCN(C(=O)Cn3ccc4cccnc43)CC2)cn1 [3-(2-Methoxy-pyrimidin-5-yl)-4-[4-(2-pyrrolo[2,3-b]pyridin-1-yl-acetyl)-piperazin-1-yl]-benzonitrile] the pIC50 was 8.15. In the case of Cc1cc(C)n(CC(=O)N2CCN(c3ccccc3-c3ccc4ccn(C)c4c3)CC2)n1 [2-(3,5-Dimethyl-pyrazol-1-yl)-1-{4-[2-(1-methyl-1H-indol-6-yl)-phenyl]-piperazin-1-yl}-ethanone], the pIC50 was 7.72. Compound O=C(Cn1cnc2cccnc21)N1CCN(c2ccc(F)cc2-c2cnc(N3CCCC3)nc2)CC1 [1-(4-{4-fluoro-2-[2-(pyrrolidin-1-yl)pyrimidin-5-yl]phenyl}piperazin-1-yl)-2-(3H-imidazo[4,5-b]pyridin-3-yl)ethanone] has a pIC50 of 7.85. For Cc1ocnc1C(=O)N(C)CC(=O)N1CCN(c2ccc(F)cc2C(=O)Nc2nc3c(s2)CN(C)CC3)C[C@@H]1C [N-{2-[(2S)-4-{4-fluoro-2-[(5-methyl-4,5,6,7-tetrahydro[1,3]thiazolo[5,4-c]pyridin-2-yl)carbamoyl]phenyl}-2-methylpiperazin-1-yl]-2-oxoethyl}-N,5-dimethyl-1,3-oxazole-4-carboxamide], the pIC50 was 7.68. Compound COc1cc(NC(=O)c2cc(F)ccc2N2CCN(C(=O)Cn3c(=O)[nH]c4ccccc43)[C@@H](C)C2)ccn1 [5-fluoro-N-(2-methoxypyridin-4-yl)-2-{(3S)-3-methyl-4-[(2-oxo-2,3-dihydro-1H-benzimidazol-1-yl)acetyl]piperazin-1-yl}benzamide] has a pIC50 of 8.05. Work on CC1CN(c2ccccc2-c2cnc(S(C)(=O)=O)nc2)CCN1C(=O)Cn1ccc2cccnc21 (centres unmarked) [1-(2-methyl-4-{2-[2-(methylsulfonyl)pyrimidin-5-yl]phenyl}piperazin-1-yl)-2-(1H-pyrrolo[2,3-b]pyridin-1-yl)ethanone] yielded a pIC50 of 7.57.
